Results as given in patent US20190008961A1, “COMPOUNDS AND METHODS FOR INCREASING TUMOR INFILTRATION BY IMMUNE CELLS” (THE BROAD INSTITUTE, INC., priority 2016, published 2019).
Each block holds one compound with its values, some of them ahead of it.

Experiments:
MSC cells = assay: RSL3 toxicity in the presence of inhibitors of arachidonic acid metabolic enzymes; type: cell-based; details: for effect on toxicity of RSL3: increasing amounts of RSL3, FIG. 13; for RSL3 mediated cell death in MSCs with soluble epoxide hydrolase inhibitors: FIG. 14, TPPU 20 and 80 μM, AUDA and butyl-AUDA 80 μM
Excerpt: To investigate the role of RSL3's effects on MSC toxicity, MDA-MSC co-cultures were contacted by compounds that were known inhibitors of arachidonic acid metabolic enzymes.

[1] = system: MSCs and WI-38 fibroblasts; assay: viability, Cell Titer Glo, 72 hours; type: cell-based, human
Procedure: Viability measurements were made to determine whether RSL3 is toxic to MDA cells, MSCs or both. Viability was assessed by seeding cells into 384-well opaque-bottom plates (Corning, Corning N.Y. catalog #3570) then treating them 24 hours later with varying concentrations of RSL3 (added using the pin-transfer instrument CyBi-Well Vario, Cybio, Woburn Mass.) for an additional period of 72 hours. Viable cells remaining after the treatment were quantified using the Cell Titer Glo reagent (Promega, Madison Wis. catalog #G7570) that measures cellular ATP content.

[2] = microsomal stability, mouse; type: in vitro ADME
Procedure: (§1) Microsomal Stability. Microsomal stability was determined at 37° C. at 60 minutes in both human and mouse microsomes. Each compound was prepared in duplicate at 1 μM with 0.3 mg/mL microsomes in PBS pH 7.4 (1% DMSO). Compounds were incubated at 37° C. for 60 minutes with a 350-rpm orbital shake with time points taken at 0 minutes and 60 minutes. Samples were analyzed by UPLC-MS (Waters, Milford, Mass.) with compounds detected by SIR detection on a single quadrupole mass spectrometer.

[3] = microsomal stability, human; type: in vitro ADME
Procedure: as §1

plasma stability, human = type: in vitro ADME
Procedure: (§2) Plasma Stability. Plasma stability was determined at 37° C. at 5 hours in both human and mouse plasma. Each compound was prepared in duplicate at 5 μM in plasma diluted 50/50 (v/v) with PBS pH 7.4 (0.95% acetonitrile, 0.05% DMSO). Compounds were incubated at 37° C. for 5 hours with a 350-rpm orbital shake with time points taken at 0 hours and 5 hours. Samples were analyzed by UPLC-MS (Waters, Milford, Mass.) with compounds detected by SIR detection on a single quadrupole mass spectrometer.

[4] = plasma protein binding by equilibrium dialysis, human; type: in vitro ADME; details: 5 μM
Procedure: Plasma Protein Binding. Plasma protein binding was determined by equilibrium dialysis using the Rapid Equilibrium Dialysis (RED) device (Pierce Biotechnology, Rockford, Ill.) for both human and mouse plasma. Each compound was prepared in duplicate at 5μM in plasma (0.95% acetonitrile, 0.05% DMSO) and added to one side of the membrane (200 μL) with PBS pH 7.4 added to the other side (350 μL). Compounds were incubated at 37° C. for 5 hours with a 350-rpm orbital shake. After incubation, samples were analyzed by UPLC-MS (Waters, Milford, Mass.) with compounds detected by SIR detection on a single quadrupole mass spectrometer.

plasma stability, mouse = type: in vitro ADME
Procedure: as §2

MSC-shGPX cells = assay: Zileuton rescue of viability in GPX4 knockdown MSCs; type: cell-based; details: increasing Zileuton
Procedure: In a knockdown GPX4 experiment in MSCs, increasing amounts of Zileuton were added to MSC-shLacZ cells as a control and to MSC-shGPX cells growing in 384-well plates and their viability was measured after 5 days of growth (see FIG. 15).

SMILES: COc1ccc2c(c1)c(CC(=O)O)c(C)n2C(=O)c1ccc(Cl)cc1 [Indomethacin]
effect on toxicity of RSL3 (MSC cells): little impact

SMILES: CCOC(=O)c1ccc(NC2CCCCC2)c(N)c1 [ferrostatin]
rescue of stromal cells from death by GPX4 inhibition (MSC cells): rescued

SMILES: COc1cccc2c1C(=O)c1c(O)c3c(c(O)c1C2=O)C[C@@](O)(C(=O)CO)C[C@@H]3O[C@H]1C[C@H](N)[C@H](O)[C@H](C)O1 [doxorubicin]
sensitivity of MSCs and fibroblasts to the drug ([1]; viability, FIG. 4B): did not show enhanced sensitivity

SMILES: CCC(=O)N1CCC(NC(=O)Nc2ccc(OC(F)(F)F)cc2)CC1 [TPPU]
RSL3 mediated cell death in MSCs with soluble epoxide hydrolase inhibitors (MSC cells): increase in RSL3 mediated cell death
effect on toxicity of RSL3 (MSC cells): enhanced RSL3 effects

SMILES: O=C(O)CCCCCCCCCCCNC(=O)NC12CC3CC(CC(C3)C1)C2 [AUDA]
RSL3 mediated cell death in MSCs with soluble epoxide hydrolase inhibitors (MSC cells): increase in RSL3 mediated cell death

SMILES: CCCCS(=N)(=O)CCC(N)C(=O)O (stereo not shown) [buthionine sulfoximine, S-n-butyl homocysteine sulfoximine]
stromal cell death, potency relative to RSL3 [1]: lower potencies than that of RSL3

Liver Microsome Stability (1 h) ([2]; Mouse, 1 μM, 0.3 mg/mL microsomes): <1%
stability in murine liver microsomal assay, in words ([2]; murine): little stability
Liver Microsome Stability (1 h) ([3]; Human, 1 μM, 0.3 mg/mL microsomes): 32.7%
stability in human liver microsomal assay, in words ([3]; human): modest stability
Plasma Stability (5 h) (plasma stability, human; Human, 37° C., 5 μM): 47%
stability in human plasma, in words (plasma stability, human; human): modest stability
Plasma Binding Protein (5 h) [4]: 98.2%
Plasma Stability (5 h) (plasma stability, mouse; Mouse, 37° C., 5 μM): <1%
stability in murine plasma, in words (plasma stability, mouse; murine): little stability
SMILES: COC(=O)c1ccc([C@@H]2c3[nH]c4ccccc4c3C[C@@H](C(=O)OC)N2C(=O)CCl)cc1 [RSL3]
potency in inhibiting viability of stromal cells compared with MDA cancer cells or HUVEC endothelial cells ([1]; 72 hours treatment): > 10 fold

SMILES: c1ccc2c(c1)SCc1c-2[nH]c2ccccc12 [PD146176]
effect on toxicity of RSL3 (MSC cells): lessened the toxicity of RSL3

SMILES: CCCCOC(=O)CCCCCCCCCCCNC(=O)NC12C[C@H]3C[C@@H](C1)C[C@@H](C2)C3 [butyl-AUDA]
RSL3 mediated cell death in MSCs with soluble epoxide hydrolase inhibitors (MSC cells): increase in RSL3 mediated cell death

SMILES: COc1ccc(N(C(=O)CCl)C(C(=O)NCCc2ccccc2)c2cccs2)cc1Cl (stereo not shown) [ML162]
stromal cell death, potency relative to RSL3 [1]: lower potencies than that of RSL3

SMILES: CC(C)c1ccc2c(c1)c(SC(C)(C)C)c(CC(C)(C)C(=O)O)n2Cc1ccc(Cl)cc1 [MK886]
effect on toxicity of RSL3 (MSC cells): lessened the toxicity of RSL3

SMILES: CC(c1cc2ccccc2s1)N(O)C(N)=O (stereo not shown) [Zileuton]
amount of MSC-shGPX cells that survived (MSC-shGPX cells; 5 days of growth): increased with higher amounts of Zileuton
viability of control MSC-shLacZ cells (MSC-shGPX cells; FIG. 15): no effect
rescue of stromal cells from death by GPX4 inhibition (MSC cells): rescued
effect on toxicity of RSL3 (MSC cells): lessened the toxicity of RSL3
